Test results: patent US20230212159A1, “Process for the Production of Ferroportin Inhibitors” (Vifor (International) AG, priority 2020, published 2023)

Molecular target: T1, human Fpn (Homo sapiens, UniProt Q9NP59)
T1 construct: FLAG (C); made in house; host or cells: Pichia pastoris
T1 sequence (Q9NP59 1-571): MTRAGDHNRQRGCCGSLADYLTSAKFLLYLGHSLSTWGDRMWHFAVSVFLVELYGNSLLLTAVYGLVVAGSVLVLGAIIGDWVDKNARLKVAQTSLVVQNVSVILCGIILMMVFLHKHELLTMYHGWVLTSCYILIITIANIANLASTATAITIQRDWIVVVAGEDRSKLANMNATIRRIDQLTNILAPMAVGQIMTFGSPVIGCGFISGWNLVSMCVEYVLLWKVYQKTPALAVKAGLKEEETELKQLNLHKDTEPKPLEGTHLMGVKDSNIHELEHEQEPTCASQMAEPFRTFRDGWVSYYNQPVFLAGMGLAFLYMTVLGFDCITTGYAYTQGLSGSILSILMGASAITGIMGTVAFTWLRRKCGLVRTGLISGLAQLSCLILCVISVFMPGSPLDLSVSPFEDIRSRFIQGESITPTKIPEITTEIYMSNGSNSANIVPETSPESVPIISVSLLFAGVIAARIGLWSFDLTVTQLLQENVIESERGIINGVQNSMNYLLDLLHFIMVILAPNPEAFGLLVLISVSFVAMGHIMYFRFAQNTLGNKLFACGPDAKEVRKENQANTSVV
Assay: Biophysical ferroportin-hepcidin binding assay (fluorescence polarization)
Settings: TMR-hepcidin, tested as 3HCl-salts, n=2, read-out: Biophysical Ferroportin-Hepcidin Binding (FP) IC50
Experimental: This biophysical assay was developed to confirm inhibition of hepcidin binding to ferroportin (Fpn) more directly. Incubation of TMR-hepcidin with purified human Fpn isolated from Pichia pastoris yeast cells expressing human Fpn with a C-terminal FLAG affinity tag (Bonaccorsi di Patti, 2014) leads to increased fluorescence polarization (FP) of the TMR-hepcidin ligand.
A mixture of […] human Fpn and 30 nM TMR-hepcidin in FP assay buffer containing 50 mM Tris-HCI pH 7.3, 200 mM NaCI, 0.02% DDM, 0.1% BSA was plated into a 384 well black low volume round bottom plate (Corning, Cat. 3677) at […] per well. […] of serial dilutions of test compounds were added in duplicates to reach final Fpn and TMR-hepcidin concentrations of […] and 20 nM, respectively. Plates were incubated for 90 minutes at room temperature and parallel (S) and perpendicular (P) fluorescence was measured in a Synergy H1 fluorescence reader (BioTek). FP values were calculated in mP according to the following formula.
IC50 values were determined with the calculated mP values as described for the hepcidin internalization assay and are listed in Table 2.

| SMILES | IC50 [nM] |
| --- | --- |
| O=C(NCc1ncccc1F)c1coc(CCNCCc2nc3ccccc3[nH]2)n1 [Compound (II)] | 28 |
| O=C(NCc1ncccc1Br)c1coc(CCNCCc2nc3ccccc3[nH]2)n1 [Compound (II′)] | 28 |
